Test results from patent publication US9707178B2, “Pharmaceutical composition” (Lek Pharmaceuticals, d.d., priority 2006, dated 2017).

What was measured:
[1] = pH of excipient measured by a glass electrode, 1 g in 100 g of water at room temperature; assay type: physicochemical; conditions: aqueous solution or suspension
From the text: In general we observed a best stabilization where each of the constituents being incorporated into a composition has a pH less than 9, preferably less than 8; but can have pH above 5. […] We have concluded that the excipients, being in contact with olmesartan medoxomil, being incorporated into a composition should preferably have a pH less that 8 if measured by a glass electrode in an aqueous solution or suspension containing 1 g of said excipient in 100 g of water at room temperature. Thus the pH of excipents uses in examples is as follows; lactose: about 5.2, L-HPC: about 6.7, MCC: about 6.7, stearic acid: about 5.4, Mg stearate: about 9.5, coating suspension (Example 3): about 6.6.

[2] = Stability of bulk olmesartan medoxomil in solution at different pH; assay type: physicochemical
Protocol: The main degradation product is olmesartan acid. […] In a solution at pH=7 the amount of formed olmesartan acid increases by 0.5% in 24 hours, while in 1M HCl the amount increases by approximately 6%. The amounts of individual and total impurities are measured in area % and determined by HPLC using the following procedure: a sample solution was prepared by diluting quantity of pulverized tablet equivalent to 25 mg of olmesartan medoxomil in 50 ml volumetric flask to volume with diluent (Eluent A+Eluent B=50%/50%). Column Waters Xbridge C18, 150×4.6 mm, 3.5 μm was used and eluted by Eluent A (0.025 M KH2PO4 adjusted to pH=2.5 with 50% H3PO4) and Eluent B (acetonitrile) with following gradient: A:B=100:0, from 15 to 30 minutes A:B=70:30, after 30 min A.B=0:100. Flow rate was […], Injection volume was 20 μl, column temperature was 30° C., detection wavelength at 225 nm.

| pH of excipient [1] | Hydrolysis at basic conditions ([2]; basic conditions) | pH range in which most stable ([2]; bulk) | Increase of amount of formed olmesartan acid ([2]; in 1M HCl) | Increase of amount of formed olmesartan acid ([2]; solution at pH=7, 24 hours) [%] | SMILES |
| --- | --- | --- | --- | --- | --- |
| about 9.5 |  |  |  |  | CCCCCCCCCCCCCCCCCC(=O)[O-].CCCCCCCCCCCCCCCCCC(=O)[O-].[Mg+2] [Mg stearate] |
| about 5.2 |  |  |  |  | OC[C@H]1O[C@@H](O[C@H]2[C@H](O)[C@@H](O)C(O)O[C@@H]2CO)[C@H](O)[C@@H](O)[C@H]1O (stereo partly shown) [lactose] |
|  | almost completely hydrolyzes | 3-5 | approximately 6% | 0.5 | CCCc1nc(C(C)(C)O)c(C(=O)OCc2oc(=O)oc2C)n1Cc1ccc(-c2ccccc2-c2nnn[nH]2)cc1 [olmesartan medoxomil, 4-(1-hydroxy-1-methylethyl)-2 propyl-1-[[2′-(1H-tetrazol-5-yl) [1,1′-biphenyl]-4-yl]methyl]-1H-imidazole-5-carboxylic acid (5-methyl-2-oxo-1,3-dioxol-4-yl)methyl ester] |
| about 5.4 |  |  |  |  | CCCCCCCCCCCCCCCCCC(=O)O [stearic acid] |
